Measured values reported in ChEMBL document CHEMBL1128769, “Structure-activity relationships of tricyclic quinoxalinediones as potent antagonists for the glycine binding site of the NMDA receptor 2” (Bioorg Med Chem Lett, 1995).

How the values were obtained:
[1] = target: Glutamate receptor ionotropic, NMDA 1 (Rattus norvegicus, UniProt P35439); assay: Affinity for the glycine binding site of the NMDA receptor using [3H]- 5,7- dichloro -kynurenic acid as radio-ligand
[2] = target: Glutamate receptor ionotropic, NMDA 1 (Rattus norvegicus) (UniProt P35439); assay: Percent inhibition of [3H]- 5,7- dichloro -kynurenic acid binding to glycine binding site of NMDA receptor at 10 ng/mL
[3] = target: Glutamate receptor ionotropic, NMDA 1 (Rattus norvegicus) (UniProt P35439); assay: Percent inhibition of binding affinity for the glycine binding site of the NMDA receptor using [3H]5,7- dichloro -kynurenic acid at a concentration of 10 ng/mL

Row | SMILES | Ki [1] [nM] | inhibition [2] [%] | inhibition [3] [%]
1 | O=C(O)CC1CCc2cc(I)cc3[nH]c(=O)c(=O)n1c23 (stereo not given) | 46.6 | 76.2 | 
2 | O=C(O)CC1CCc2cccc3[nH]c(=O)c(=O)n1c23 (stereo not given) |  |  | 30.3
3 | NC(=O)CC1CCc2cc(Br)cc3[nH]c(=O)c(=O)n1c23 (stereo not given) |  | 28.9 | 
4 | C[C@H]1Cc2cc(Cl)cc3[nH]c(=O)c(=O)n(c23)C1CC(=O)O (stereo not given in full) | 4.4 |  | 
5 | O=C(CC1CCc2cccc3[nH]c(=O)c(=O)n1c23)Nc1ccccc1 (stereo not given) |  |  | 52.7
6 | C[C@H]1Cc2cc(Cl)cc3[nH]c(=O)c(=O)n(c23)C1CC(=O)Nc1ccccc1 (stereo not given in full) | 3.1 |  | 
7 | O=C(CC1CCc2cc(Br)cc3[nH]c(=O)c(=O)n1c23)NC1CCCCC1 (stereo not given) |  | 23.8 | 
8 | O=C(O)CC1CCc2cc(Cl)cc3[nH]c(=O)c(=O)n1c23 (stereo not given) | 5.1 | 90.3 | 

More lines, now with the values ahead:

Row | Ki [1] [nM] | inhibition [2] [%] | inhibition [3] [%] | SMILES
9 | 6.6 | 79.3 |  | O=C(CC1CCc2cc(Cl)cc3[nH]c(=O)c(=O)n1c23)Nc1ccccc1 (stereo not given)
10 |  |  | 3.8 | N#Cc1ccc(NC(=O)CC2CCc3cc(Br)cc4[nH]c(=O)c(=O)n2c34)cc1 (stereo not given)
11 | 134 | 46.7 |  | O=C(CC1CCc2cc(I)cc3[nH]c(=O)c(=O)n1c23)Nc1ccccc1 (stereo not given)
12 |  | 83.3 |  | Cc1ccc(NC(=O)CC2CCc3cc(Br)cc4[nH]c(=O)c(=O)n2c34)cc1 (stereo not given)
13 |  | 76.4 |  | Nc1ccc(NC(=O)CC2CCc3cc(Br)cc4[nH]c(=O)c(=O)n2c34)cc1 (stereo not given)
14 |  |  | 21.5 | O=C(CC1CCc2cc(Br)cc3[nH]c(=O)c(=O)n1c23)Nc1ccc([N+](=O)[O-])cc1 (stereo not given)
15 |  | 1 |  | O=C(CC1CCc2cc(Br)cc3[nH]c(=O)c(=O)n1c23)Nc1ccc(C(F)(F)F)cc1 (stereo not given)
16 |  | 67.5 |  | COc1ccc(NC(=O)CC2CCc3cc(Br)cc4[nH]c(=O)c(=O)n2c34)cc1 (stereo not given)
17 | 9.9 | 68.7 |  | O=C(O)CC1CCc2cc(Br)cc3[nH]c(=O)c(=O)n1c23 (stereo not given)
18 |  | 73 |  | CC(=O)Nc1ccc(NC(=O)CC2CCc3cc(Br)cc4[nH]c(=O)c(=O)n2c34)cc1 (stereo not given)
19 | 2.6 | 92.9 |  | O=C(CC1CCc2cc(Br)cc3[nH]c(=O)c(=O)n1c23)Nc1ccccc1 (stereo not given)
